Measurements reported in ChEMBL document CHEMBL4616701, “Design, Synthesis, and Pharmacological Evaluation of Second Generation EZH2 Inhibitors with Long Residence Time” (ACS Med Chem Lett, 2020).
Activity calls are given as the source filed them. The rule behind the calls is not given here.

What was measured:
[1] = target: T1, Histone-lysine N-methyltransferase EZH2 (Homo sapiens, UniProt Q15910); test: Inhibition of EZH2 in human HeLa cells assessed as inhibition of trimethylation of H3K27 after 72 hrs by AlphaLISA assay; assay type: cell-based
Target sequence in this assay (Q15910 whole entry): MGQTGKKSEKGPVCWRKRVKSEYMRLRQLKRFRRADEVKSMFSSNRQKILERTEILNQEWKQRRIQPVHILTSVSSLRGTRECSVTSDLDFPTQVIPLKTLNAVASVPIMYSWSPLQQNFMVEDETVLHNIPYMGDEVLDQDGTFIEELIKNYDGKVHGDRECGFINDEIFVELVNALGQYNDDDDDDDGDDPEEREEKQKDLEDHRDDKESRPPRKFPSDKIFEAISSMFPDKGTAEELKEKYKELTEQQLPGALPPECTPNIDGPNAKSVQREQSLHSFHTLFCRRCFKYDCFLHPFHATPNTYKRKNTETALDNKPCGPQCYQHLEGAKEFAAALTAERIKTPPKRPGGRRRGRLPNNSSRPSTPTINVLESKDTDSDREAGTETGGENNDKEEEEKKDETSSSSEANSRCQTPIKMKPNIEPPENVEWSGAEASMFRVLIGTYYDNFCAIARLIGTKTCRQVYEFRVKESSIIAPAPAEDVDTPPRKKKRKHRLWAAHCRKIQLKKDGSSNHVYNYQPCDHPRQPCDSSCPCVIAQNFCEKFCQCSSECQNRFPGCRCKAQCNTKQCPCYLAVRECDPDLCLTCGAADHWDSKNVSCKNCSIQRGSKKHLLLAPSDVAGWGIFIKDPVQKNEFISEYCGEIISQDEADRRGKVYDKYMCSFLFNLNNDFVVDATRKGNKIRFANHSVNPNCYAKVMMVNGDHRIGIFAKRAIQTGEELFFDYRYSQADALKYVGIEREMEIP

CYP3A4 = test: Upregulation of CYP3A4 mRNA expression in human Fa2N-4 cells at 10 uM after 3 days relative to control; assay type: ADME, cell-based; details: read-out: FC
[2] = target: T1, Histone-lysine N-methyltransferase EZH2; test: Binding affinity to N-terminal FLAG-tagged EZH2 in PRC2 complex (unknown origin) expressed in baculovirus infected Sf9 cells assessed as residence time at 21 nM pre-equilibrated with enzyme followed by incubation with bio-EZH2i and measured after 3 to 6 mins by TR-FRET assay
Target sequence in this assay (Q15910 whole entry, looked up): as the sequence (Q15910 whole entry) above

[3] = target: T1, Histone-lysine N-methyltransferase EZH2; test: Inhibition of N-terminal FLAG-tagged EZH2 in PRC2 complex (unknown origin) expressed in baculovirus infected Sf9 cells using H2N-RKQLATKAAR(Kme0)SAPATGGVKKP-NTPEGBiot peptide as substrate preincubated with [3H]SAM for 4 to 5 hrs followed by substrate addition and measured after 20 hrs by Topcount reader analysis
Target sequence in this assay (Q15910 whole entry): as above

KARPAS-422 [4] = test: Antiproliferative activity against human KARPAS422 cells assessed as growth inhibition after 8 days by Cell Titer-Glo luminescent assay; assay type: functional; details: KARPAS-422, 192 h
CWR22R = test: Antitumor activity against human 22Rv1 cells xenografted in CB-17 SCID mouse assessed as tumor growth inhibition at 50 mg/kg, sc bid and measured three times per week by caliper method relative to control; assay type: functional; details: 22Rv1, sc, read-out: TGI
[5] = Toxicity in CB-17 SCID mouse xenografted with human KARPAS422 cells assessed as body weight loss at 50 mg/kg, sc bid for 16 days; assay type: organism-based, KARPAS-422; details: in vivo, 384 h
KARPAS-422 [6] = test: Antitumor activity against human KARPAS422 cells xenografted in CB-17 SCID mouse assessed as tumor regression at 50 mg/kg, sc bid for 16 days and measured at day 9 by caliper method; assay type: functional, organism-based
KARPAS-422 [7] = test: Antitumor activity against human KARPAS422 cells xenografted in CB-17 SCID mouse assessed as tumor regression at 160 mg/kg, po bid for 23 days and measured three times per week by caliper method; assay type: functional, organism-based
[8] = Clearance in iv dosed mouse; assay type: ADME, organism-based; details: in vivo
[9] = Protein binding in human plasma; assay type: ADME, cell-free; details: read-out: PPB (converted)
[10] = Oral bioavailability in mouse; assay type: ADME, organism-based; details: in vivo
[11] = Protein binding in mouse plasma; assay type: ADME, cell-free; details: read-out: PPB (converted)
KARPAS-422 [12] = test: Antitumor activity against human KARPAS422 cells xenografted in CB-17 SCID mouse assessed as tumor regression at 50 mg/kg, sc bid for 16 days and measured at day 7 by caliper method; assay type: functional, organism-based
KARPAS-422 [13] = test: Antitumor activity against human KARPAS422 cells xenografted in CB-17 SCID mouse assessed as tumor growth inhibition at 50 mg/kg, sc bid for 16 days and measured three times per week by caliper method relative to control; assay type: functional; details: KARPAS-422, sc, 384 h, read-out: TGI

SMILES	EC50 [1]	fold induction at 72 h, 10 µM (CYP3A4)	TIME [2]	IC50 [3]	GI50 (KARPAS-422 [4])	other results
CSc1cc(C)[nH]c(=O)c1CNC(=O)c1c(C)n([C@H](C)[C@H]2CC[C@@H](N3CC(F)(F)C3)CC2)c2ccccc12	5.9 nM	45	29.1 h	0.18 nM		
CSc1cc(C)[nH]c(=O)c1CNC(=O)c1c(C)n([C@H](C)[C@H]2CC[C@H](N3CC(OC4CC4)C3)CC2)c2ccccc12	3.5 nM	17	289 h	0.072 nM	13 nM	
CSc1cc(C)[nH]c(=O)c1CNC(=O)c1c(C)n([C@H](C)[C@H]2CC[C@H](N3CC(OC4CC4)C3)CC2)c2ncc(F)cc12	1.8 nM	12	65.8 h	0.06 nM	24 nM	
CSc1cc(C)[nH]c(=O)c1CNC(=O)c1c(C)n([C@H](C)C2CCN(CC(C)(C)O)CC2)c2ccccc12	26 nM		7.52 h	0.067 nM		
CSc1cc(C)[nH]c(=O)c1CNC(=O)c1c(C)n([C@H](C)C2CCN(C3COC3)CC2)c2ccccc12	5.1 nM	6.4	42.5 h	0.12 nM		
COc1cc(C)[nH]c(=O)c1CNC(=O)c1c(C)n([C@H](C)C2CCN(CC(F)(F)F)CC2)c2ccccc12 [CPI-1205]			4.5 h		436 nM	
Cc1cc(Sc2ccccc2)c(CNC(=O)c2c(C)n([C@H](C)C3CCN(CC(F)(F)F)CC3)c3ccccc23)c(=O)[nH]1	181 nM			0.62 nM		
COC1CN([C@H]2CC[C@H]([C@@H](C)n3c(C)c(C(=O)NCc4c(SC)cc(C)[nH]c4=O)c4ccccc43)CC2)C1	2 nM	2	141 h	0.059 nM	33 nM	inhibition in vivo at 50 mg/kg (CWR22R): 55%; Activity [5]: Non-Toxic; Activity (KARPAS-422 [6]): Active
CCSc1cc(C)[nH]c(=O)c1CNC(=O)c1c(C)n([C@H](C)C2CCN(CC(F)(F)F)CC2)c2ccccc12	45.3 nM			0.73 nM		
CCN(c1cc(-c2ccc(CN3CCOCC3)cc2)cc(C(=O)NCc2c(C)cc(C)[nH]c2=O)c1C)C1CCOCC1						Activity (KARPAS-422 [7]): Active
Cc1cc(Cl)c(CNC(=O)c2c(C)n([C@H](C)C3CCN(CC(F)(F)F)CC3)c3ccccc23)c(=O)[nH]1	< 100 nM			0.2 to 30 nM		
Cc1cc(S(C)(=O)=O)c(CNC(=O)c2c(C)n([C@H](C)C3CCN(CC(F)(F)F)CC3)c3ccccc23)c(=O)[nH]1	> 304 nM			4.1 nM		
Cc1cc(C)c(CNC(=O)c2c(C)n([C@H](C)C3CCN(CC(F)(F)F)CC3)c3ccccc23)c(=O)[nH]1				0.2 to 30 nM		
CSc1cc(C)[nH]c(=O)c1CNC(=O)c1c(C)n([C@H](C)C2CCN(CC(F)(F)F)CC2)c2ccccc12	2.5 nM	25	46.3 h	0.18 nM	53 nM	clearance [8]: 9.33 mL/min/kg; fraction unbound [9]: 0.03; bioavailability [10]: 40%; fraction unbound [11]: 0.002; Activity (KARPAS-422 [12]): Active; Activity [5]: Non-Toxic; inhibition in vivo at 50 mg/kg (KARPAS-422 [13]): 77 to 88%
CSc1cc(C)[nH]c(=O)c1CNC(=O)c1c(C)n([C@H](C)[C@H]2CC[C@H](N3CC(OC4CC4)C3)CC2)c2ncc(Cl)cc12	3.5 nM	1.6	64.2 h	0.092 nM	37 nM	
COc1cc(C)c(CNC(=O)c2c(C)n([C@H](C)C3CCN(CC(F)(F)F)CC3)c3ccccc23)c(=O)[nH]1	> 1000 nM			0.2 to 30 nM		
Cc1cc(SC2CCC2)c(CNC(=O)c2c(C)n([C@H](C)C3CCN(CC(F)(F)F)CC3)c3ccccc23)c(=O)[nH]1	48.5 nM			0.49 nM		
CSc1cc(C)[nH]c(=O)c1CNC(=O)c1c(C)n([C@H](C)[C@H]2CC[C@H](N3CC(OC(F)F)C3)CC2)c2ccccc12	0.7 nM	32	211 h	0.1 nM	12 nM	
Cc1cc(SCc2ccccc2)c(CNC(=O)c2c(C)n([C@H](C)C3CCN(CC(F)(F)F)CC3)c3ccccc23)c(=O)[nH]1				3.8 nM		
Cc1cc(Cl)[nH]c(=O)c1CNC(=O)c1c(C)n([C@H](C)C2CCN(CC(F)(F)F)CC2)c2ccccc12	> 1000 nM			0.2 to 30 nM		
CSc1cc(C)[nH]c(=O)c1CNC(=O)c1c(C)n([C@H](C)[C@H]2CC[C@H](N3CC(OC4CC4)C3)CC2)c2ncncc12	6.3 nM		51.9 h	0.1 nM	29 nM	
CSc1cc(C)[nH]c(=O)c1CNC(=O)c1c(C)n([C@H](C)[C@H]2CC[C@H](N3CC(OC(F)(F)F)C3)CC2)c2ccccc12	1.8 nM	41		0.14 nM	32 nM	
Cc1cc([S+](C)[O-])c(CNC(=O)c2c(C)n([C@H](C)C3CCN(CC(F)(F)F)CC3)c3ccccc23)c(=O)[nH]1 (some centres not stated)	> 304 nM			19 nM		
CSc1cc(C)[nH]c(=O)c1CNC(=O)c1c(C)n([C@H](C)[C@H]2CC[C@H](NC3COC3)CC2)c2ccccc12	6.7 nM	5	138 h	0.13 nM		
CSc1cc(C)[nH]c(=O)c1CNC(=O)c1c(C)n([C@H](C)[C@H]2OC[C@H](N(C)C)CO2)c2ccccc12	2.4 nM	3	40.9 h	0.16 nM		
CSc1cc(C)[nH]c(=O)c1CNC(=O)c1c(C)n([C@H](C)[C@H]2CC[C@H](N3CC(OC4CC4)C3)CC2)c2c(F)cccc12	3.4 nM		100 h	0.063 nM	32 nM	
